The nature of this data set: in vitro. The following applies: human, hela cells, % viability.

Regarding `Nc1ccc(C(=O)Nc2ccc(Nc3cc(-c4ccco4)ncn3)cc2)cc1` [CBK091099], the viability (in general, a read-out of living cells in per cent, often relative to untreated cells) at 28.5 h, 10 µM is 96.5%.

Take `CC(=O)NC(Cc1c[nH]c2ccccc12)C(=O)O` (centres unmarked) [CBK217373]: the viability at 28.5 h, 10 µM came to 95.9%.

Turning to `Cc1nc(C(F)(F)F)ccc1NC(=O)CSCC(=O)O` [CBK056975], the viability at 28.5 h, 10 µM is 93.3%.

For `CCNc1nccnc1-c1ccc(O)cc1` [CBK088589], the viability at 28.5 h, 10 µM is 108%.

As for `Cc1ccc(NC(=O)c2cccnc2)c(C(=O)O)c1` [CBK000177], the viability at 28.5 h, 10 µM came out at 103%.

`CCS(=O)(=O)N1CC2CCCC(O)(c3ccc(F)cc3)C2C1` (centres unmarked) [CBK284363]: the viability at 28.5 h, 10 µM came out at 80.5%.

In the case of `CC(=O)Nc1cccc(-n2c(C)nnc2SCC2CCCCC2)c1` [CBK304590], the viability at 28.5 h, 10 µM came to 86.3%.

`Cc1ccc(-c2nnc(-c3cccc(S(=O)(=O)N4CCOCC4)c3)o2)cc1` [CBK263215]: the viability at 28.5 h, 10 µM turned out to be 112%.

For the compound `COc1ccc(/C(N)=N/OC(=O)C(C)Oc2ccc(Br)cc2)cc1OC` (centres unmarked) [CBK266807], the viability at 28.5 h, 10 µM stood at 95.6%.

On to `Nc1ncc(-c2ccco2)nc1-c1ccc(C=O)cc1` [CBK064095], for which the viability at 28.5 h, 10 µM turned out to be 102%.

For the compound `CN1C[C@]2(CC[C@@H](C(=O)NC3CC3)CC2)Oc2ccccc2C1=O` [CBK282610], the viability at 28.5 h, 10 µM was determined as 102%.

With `CC(C)(C)c1[nH]c2ncccc2c1CN1CCSCC1` [CBK285340], the viability at 28.5 h, 10 µM turned out to be 93.6%.

Consider `O=C(CSCc1ccc(Br)cc1)NCC1CCCO1` (centres unmarked) [CBK268506], for which the viability at 28.5 h, 10 µM is 87.3%.

For the compound `O=C(CN1CCC2(CC1)CN(CCO)c1ccccc12)Nc1ccc(F)c(Cl)c1` [CBK126761], the viability at 28.5 h, 10 µM amounted to 94.6%.

With `C=Cn1ncc(CN2CCN(C3CCCCC3)C(=O)C2)c1C` [CBK282526], the viability at 28.5 h, 10 µM came to 107%.

As for `O=S(=O)(c1sccc1F)N1CCOCC1c1cccc(F)c1` (centres unmarked) [CBK304730], the viability at 28.5 h, 10 µM came to 82.6%.

Turning to `Cc1ccc(Cl)cc1NC(=O)c1cc([N+](=O)[O-])ccc1NCCN1C(=O)c2ccccc2C1=O` [CBK268501], the viability at 28.5 h, 10 µM worked out at 99.5%.

Regarding `O=C(Nc1ccc(Cl)cc1)c1ccc(N2CCN(Cc3ccccc3)CC2)c([N+](=O)[O-])c1` [CBK264422], the viability at 28.5 h, 10 µM was 103%.

Regarding `COc1cc(OC)c(OC)cc1CN1CCN(S(=O)(=O)c2ccc(C)cc2)CC1` [CBK263323], the viability at 28.5 h, 10 µM turned out to be 92.4%.

Consider `COc1ccc(NC(=O)CCN2C(=O)c3ccccc3S2(=O)=O)cc1` [CBK265863], for which the viability at 28.5 h, 10 µM is 87.1%.

Turning to `O=C(O)CCC(=O)NNC(=O)c1ccc(O)cc1` [CBK261353], the viability at 28.5 h, 10 µM was 105%.

Take `CNS(=O)(=O)c1ccc(CCC(=O)N(C)Cc2cnn(C)c2)cc1` [CBK305712]: the viability at 28.5 h, 10 µM came out at 84.9%.

With `COc1ccc(CC(=O)N2CCC(c3cc4cnccc4[nH]3)CC2)cc1` [CBK283451], the viability at 28.5 h, 10 µM turned out to be 87.2%.

Regarding `CCN(Cc1ccccc1)Cc1nc2ccccc2c(=O)[nH]1` [CBK283203], the viability at 28.5 h, 10 µM was 95.6%.

For `CS(=O)(=O)Nc1cccc(C2=NN(S(=O)(=O)c3ccc(Cl)cc3)C(c3ccccc3F)C2)c1` (centres unmarked) [CBK268762], the viability at 28.5 h, 10 µM was found to be 114%.

`CCOC(=O)c1c(C)oc2ccc(OCC(=O)c3ccc(Br)cc3)cc12` [CBK263841]: the viability at 28.5 h, 10 µM was found to be 92.4%.

As to `COc1ccc(Cl)cc1N1CCN(Cc2c(F)cccc2F)CC1` [CBK126410], where the note is “bulk resorufin, single well”, the viability at 28.5 h, 10 µM was 90.9%.

Take `O=C(NCc1cccs1)C1(c2ccccc2)CCCC1` [CBK149533]: the viability at 28.5 h, 10 µM came out at 103%.

Consider `O=C(O)C(Cc1ccccc1)n1cnnn1` (centres unmarked) [CBK021162], for which the viability at 28.5 h, 10 µM turned out to be 109%.

Take `CCCOc1cccn2c(N(CC(=O)N(C)C)C(C)=O)c(CC)nc12` [CBK147850]: the viability at 28.5 h, 10 µM amounted to 102%.

In the case of `COC(=O)c1c(NC(=O)CC2Nc3cccc4cccc(c34)NC2=O)sc(C)c1C` (centres unmarked) [CBK267562], the viability at 28.5 h, 10 µM stood at 68.3%.

In the case of `CC(=O)c1cccc(NC(=O)/C(=C\c2cccnc2)NC(=O)c2ccc(C)cc2)c1` [CBK262456], the viability at 28.5 h, 10 µM stood at 88.6%.

With `O=C(c1ccccc1)N1CCC(c2nnc(-c3ccsc3)o2)CC1` [CBK283371], the viability at 28.5 h, 10 µM worked out at 88.5%.

For the compound `Cc1ccccc1OCc1nnc(SCC(=O)NC2CCCCC2)n1C` [CBK265817], the viability at 28.5 h, 10 µM was 82.5%.

With `C=CCN(c1ccc(C(=O)O)cc1)S(=O)(=O)c1ccc(/C=C/C(=O)O)cc1` [CBK263364], the viability at 28.5 h, 10 µM is 95.8%.

Consider `O=C(c1ccccn1)C1CCCN(c2nccc(CCC(F)(F)F)n2)C1` (centres unmarked) [CBK306775], for which the viability at 28.5 h, 10 µM was found to be 109%.

For the compound `O=C(Nc1ccc(N2CCNCC2)nc1)C1CCC1` [CBK004743T], the viability at 28.5 h, 10 µM stood at 86.2%.

Turning to `C/C(=N\NS(=O)(=O)c1ccc(C)cc1)C(C)(C)CC(=O)O` [CBK263601], the viability at 28.5 h, 10 µM stood at 102%.

As for `O=C(O)COc1ccc(Br)cc1/C=C\c1nc(O)c([N+](=O)[O-])c(=O)[nH]1` [CBK267223], the viability at 28.5 h, 10 µM is 88.5%.

Turning to `c1ccc(N2CCN(c3cncc(-c4ccc5ccccc5c4)n3)CC2)nc1` [CBK066104], the viability at 28.5 h, 10 µM is 100%.

Take `Cc1csc2ncc(C(=O)Nc3ccc(OC(F)(F)F)cc3)c(=O)n12` [CBK287457]: the viability at 28.5 h, 10 µM stood at 108%.

Consider `COc1cc(/C=C2\NC(=S)NC2=O)c(Cl)cc1O` [CBK102003], for which the viability at 28.5 h, 10 µM is 65.5%.

Turning to `CN1C[C@@H](NC(=O)NCc2ccccc2)C[C@H]1c1nc(-c2cncnc2)no1` [CBK288878], the viability at 28.5 h, 10 µM was determined as 108%.

On to `COC(=O)c1cc(CN2CCCN(S(=O)(=O)c3ccc(-n4cnc(Cl)c4Cl)cc3)CC2)cn1C` [CBK063080], for which the viability at 28.5 h, 10 µM came to 85.2%.

Consider `CCc1ccc(CNC(=O)Cn2nnc(-c3ccc(CNC4CCC4)cc3)n2)cc1` [CBK155006T], for which the viability at 28.5 h, 10 µM was 111%.

Regarding `CC(=O)Nc1cccc(NC(=O)c2ccc(CN3CCc4ccccc4C3)cc2)c1` [CBK269534], the viability at 28.5 h, 10 µM is 92.2%.

As for `c1ccc(CSc2nnc3[nH]c4ccccc4n23)cc1` [CBK267841], the viability at 28.5 h, 10 µM came out at 91.9%.

For the compound `Cc1nc(C(=O)NC2CC(=O)N(CCc3ccc(F)cc3)C2)cs1` (centres unmarked) [CBK307473], the viability at 28.5 h, 10 µM came out at 100%.

As to `COc1ccc(-c2ccccc2)cc1CN(Cc1ccc2c(c1)OCO2)CC(C)O` (centres unmarked) [CBK286471], the viability at 28.5 h, 10 µM was 89.7%.

On to `COc1ccc(-c2cnc3[nH]c(=O)n(CCN4CCOCC4)c3n2)cc1` [CBK064782], for which the viability at 28.5 h, 10 µM came out at 103%.

In the case of `Cc1ccc(OCCOc2cccc(/C=N/n3cnnc3)c2)cc1` [CBK263028], the viability at 28.5 h, 10 µM was determined as 111%.

Turning to `Cc1ccc(CN2C(=O)CC(Sc3ncccc3C(=O)O)C2=O)cc1` (centres unmarked) [CBK270006], the viability at 28.5 h, 10 µM stood at 91.2%.

On to `COc1c(C)cc(-c2[nH]c(C)nc2C)cc1C` [CBK306941], for which the viability at 28.5 h, 10 µM came out at 86.6%.

As for `O=C(c1cccnc1)N1CCC(c2cccc(Cc3ccc(C(F)(F)F)cc3)n2)CC1` [CBK286222], the viability at 28.5 h, 10 µM turned out to be 95.4%.

As to `CS(=O)(=O)Nc1nccnc1OC1CCN(CCc2c[nH]c3ccccc23)CC1` [CBK084282], the viability at 28.5 h, 10 µM was found to be 119%.

For `COC1C(O)C(CO)OC1n1cnc2cnc(N)nc21` (centres unmarked) [CBK201290], the viability at 28.5 h, 10 µM was 84.9%.

In the case of `COc1ccccc1/C=C1/S/C(=N/Cc2ccccc2)N(Cc2ccccc2)C1=O` [CBK262234], the viability at 28.5 h, 10 µM is 99.3%.

Take `Cc1cc(NC(=O)CN(C)CC(=O)Nc2ccc(Br)cc2C)no1` [CBK260700]: the viability at 28.5 h, 10 µM worked out at 92.9%.

`COc1ccc(CNC(N)=O)cc1` [CBK013588]: the viability at 28.5 h, 10 µM was 104%.

In the case of `Cc1ccc(S(=O)(=O)N(C)c2c(C)ccc(S(=O)(=O)N(C)CCO)c2C)cc1` [CBK264970], the viability at 28.5 h, 10 µM was found to be 85.5%.

For `O=C(N[C@H]1CCN2C(=O)c3cc(Br)ccc3NC(=O)[C@H]12)c1cccc(F)c1` [CBK289334], the viability at 28.5 h, 10 µM is 82.3%.

Turning to `N#Cc1nc(-c2ccccc2)oc1NCCN1CCCCC1` [CBK264573], the viability at 28.5 h, 10 µM came out at 93.5%.

For the compound `O=S(=O)(c1ccc(C(F)(F)F)cc1Cl)N1CCN(Cc2ccc(F)cc2F)CC1` [CBK062739], the viability at 28.5 h, 10 µM was 107%.

In the case of `OCCn1c(COc2cccc3cccnc23)nc2ccccc21` [CBK269942], the viability at 28.5 h, 10 µM was 79.5%.

With `O=C(CSc1nnc(-c2cccnc2)n1-c1ccccc1)Nc1ccc(Br)cc1` [CBK265203], the viability at 28.5 h, 10 µM turned out to be 100%.

Consider `Cc1c(CN(Cc2ccc(F)cc2)CC2CCCO2)cnn1C` (centres unmarked) [CBK282589], for which the viability at 28.5 h, 10 µM came to 86%.

As for `CCCCN(C)c1nccnc1-c1ccncc1` [CBK037655], the viability at 28.5 h, 10 µM stood at 93.4%.

In the case of `O=C(Cc1ccc2c(c1)CCCC2)Nc1cccc(-c2nnn[nH]2)c1` [CBK297129], the viability at 28.5 h, 10 µM was determined as 114%.

As to `Cc1cc(C)cc(CNC(=O)N(CCCO)Cc2ccncc2)c1` [CBK304335], the viability at 28.5 h, 10 µM was 93.7%.

As to `O=C(c1ccco1)N1CCN(c2ccc(/C=C/c3ccccc3)cn2)CC1` [CBK037701], the viability at 28.5 h, 10 µM stood at 98.7%.

`O=S(=O)(c1ccc(Br)cc1F)N1CCCCC1CO` (centres unmarked) [CBK051302]: the viability at 28.5 h, 10 µM was 92.9%.

`CS(=O)(=O)N(Cc1ccc(Cl)cc1)c1ccc(C(=O)Nc2ccccc2C(=O)O)cc1` [CBK264093]: the viability at 28.5 h, 10 µM stood at 105%.

For `CCOc1cc(C)c(Cl)cc1S(=O)(=O)NCc1ccncc1` [CBK269954], the viability at 28.5 h, 10 µM is 85.8%.

As for `O=S(=O)(c1ccc(-c2ccccc2)cc1)N1CCCN(Cc2cccc(F)c2F)CC1` [CBK063111], the viability at 28.5 h, 10 µM was determined as 113%.

For the compound `COc1ccc(C(=O)NC(N2CCCCC2)C(Cl)(Cl)Cl)cc1` (centres unmarked) [CBK087021], the viability at 28.5 h, 10 µM was 89.1%.

`O=C(c1ccsc1NS(=O)(=O)/C=C/c1ccccc1)N1CCOCC1` [CBK042285]: the viability at 28.5 h, 10 µM amounted to 90.8%.

As for `CC(=O)N1c2ccc(-c3cn4cc(C)ccc4n3)cc2CC1C` (centres unmarked) [CBK285195], the viability at 28.5 h, 10 µM was 82.5%.

In the case of `COc1cccc(NC(=O)NCc2ccc(F)cc2)c1` [CBK115590], the viability at 28.5 h, 10 µM is 90.2%.

In the case of `CC(C)(C)COC(=O)N1CCC(N2CCOc3ccc(-c4ccc(S(C)(=O)=O)cc4)cc3C2)CC1` [CBK169264], the viability at 28.5 h, 10 µM was 83%.

As for `CN(C)CCNC(=O)NC(c1ccccc1)c1ccccc1` [CBK263505C], the viability at 28.5 h, 10 µM was found to be 104%.

These data come from publication PMC12040169 (PLOS Biology, 2025).
